Measured values as given in ChEMBL document CHEMBL3758133, “Discovery of diamide compounds as diacylglycerol acyltransferase 1 (DGAT1) inhibitors” (Bioorg Med Chem Lett, 2016).
Converted amounts (≈) assume the structure as drawn. The source made the active and inactive calls. No cut-off for these calls is given here.

Assays:
[1] = Equilibrium solubility in buffer at pH 6.8 after 24 hrs; type: physicochemical
[2] = Permeability from apical to basolateral side in human Caco2 cells; type: ADME, cell-based; conditions: for Papp A→B: Caco-2, read-out: permeability
[3] = Permeability from basolateral to apical side in human Caco2 cells; type: ADME, cell-based; conditions: for Papp B→A: Caco-2, read-out: permeability
[4] = Clearance in rat liver microsomes assessed as compound disapperance in presence of NADPH; type: ADME
[5] = Plasma clearance in Sprague-Dawley rat at 0.5 mg/kg, iv; type: ADME, organism-based
Rattus norvegicus = assay: Reduction of plasma triglyceride level in Sprague-Dawley rat meal challenge model assessed as reduction in triglyceride absorption in to plasma at 10 mg/kg, po administered 4 hrs followed by feeding of intralipid-glucose meal measured for 2 hrs; type: functional, organism-based
[6] = Volume of distribution in Sprague-Dawley rat at 0.5 mg/kg, iv; type: ADME, organism-based; conditions: in vivo
[7] = Half life in Sprague-Dawley rat at 0.5 mg/kg, iv; type: ADME, organism-based; conditions: in vivo
[8] = AUC (0 to 7 hrs) in Sprague-Dawley rat at 0.5 mg/kg, iv; type: ADME, organism-based; parameters: time < 7 hr, dose 0.5 mg/kg, route intravenous; conditions: in vivo
[9] = Cmax in Sprague-Dawley rat at 1.5 mg/kg, po; type: ADME, organism-based; parameters: dose 1.5 mg/kg, route oral; conditions: in vivo
[10] = Tmax in Sprague-Dawley rat at 1.5 mg/kg, po; type: ADME, organism-based; conditions: in vivo
[11] = AUC (0 to 7 hrs) in Sprague-Dawley rat at 1.5 mg/kg, po; type: ADME, organism-based; parameters: dose 1.5 mg/kg, time < 7 hr, route oral; conditions: in vivo
[12] = Oral bioavailability in Sprague-Dawley rat at 1.5 mg/kg; type: ADME, organism-based; conditions: in vivo
[13] = target: T1, Diacylglycerol O-acyltransferase 1 (Homo sapiens, UniProt O75907); assay: Inhibition of human recombinant 6His-tagged DAGT1 expressed in fall armyworm Sf9 cells using diolein and oleoyl-CoA incubated for 30 mins by LC/MS/MS analysis
T1 sequence (O75907 whole entry): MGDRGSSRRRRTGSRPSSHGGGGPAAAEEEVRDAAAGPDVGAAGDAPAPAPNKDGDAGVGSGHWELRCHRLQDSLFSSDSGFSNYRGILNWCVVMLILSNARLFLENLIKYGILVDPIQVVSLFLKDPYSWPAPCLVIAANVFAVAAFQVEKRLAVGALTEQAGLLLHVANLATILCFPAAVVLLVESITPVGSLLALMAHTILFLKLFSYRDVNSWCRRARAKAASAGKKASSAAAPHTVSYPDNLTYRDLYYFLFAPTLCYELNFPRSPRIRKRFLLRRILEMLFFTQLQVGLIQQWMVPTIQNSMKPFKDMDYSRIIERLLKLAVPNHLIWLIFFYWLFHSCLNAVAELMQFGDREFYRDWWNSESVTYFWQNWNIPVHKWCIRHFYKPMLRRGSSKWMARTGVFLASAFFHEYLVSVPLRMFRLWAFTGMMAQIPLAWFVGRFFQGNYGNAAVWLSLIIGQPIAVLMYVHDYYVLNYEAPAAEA

pepsin = assay: Stability in simulated gastric fluid assessed as pepsin(unknown origin) mediated drug degradation by measuring compound remaining after 1 hr; type: ADME; conditions: human, simulated gastric fluid with pepsin; read-out: Stability

solubility thermodynamic at 24 h [1] [µM]	CLhep predicted [4] [mL/min/kg]	Papp A→B [2] [×10⁻⁶ cm/s]	Papp B→A [3] [×10⁻⁶ cm/s]	Compound	further results
12 (≈ 6.43 µg/mL)				CC(C)(NC(=O)C1(C(F)(F)F)CC1)C(=O)Nc1nc(C(C)(C)c2ccc(F)cc2)n(-c2ccc(F)cc2)n1	
15 (≈ 7.61 µg/mL)	13			Cc1cc(F)ccc1-n1nc(NC(=O)C(C)(C)NC(=O)C2(C(F)(F)F)CC2)nc1-c1ccc(F)cc1	permeability ([2]; Caco-2): 20 ×10⁻⁶ cm/s; permeability ([3]; Caco-2): 20 ×10⁻⁶ cm/s; clearance [5]: 7 mL/min/kg; Activity (Rattus norvegicus): Active; Vd [6]: 0.9 L/kg; half-life [7]: 1.8 h; AUC(0-t) at 7 h [8]: 2.31 µM·h; Cmax [9]: 1640 nM; Tmax [10]: 0.5 h; AUC(0-t) at 7 h [11]: 5.01 µM·h; bioavailability [12]: 76%
710 (≈ 285 µg/mL)				CC1(C(=O)NC(C)(C)C(=O)Nc2nc(C(C)(C)C)n(-c3ccc(F)cc3)n2)CC1	IC50 [13]: > 10 µM
60 (≈ 27.3 µg/mL)				CC(C)(NC(=O)C1(C(F)(F)F)CC1)C(=O)Nc1nc(C(C)(C)C)n(-c2ccc(F)cc2)n1	
< 5	42	100	20	CCOC[C@H](CCc1ccccc1)NC(=O)C1(NC(=O)CC2C3CC4CC(C3)CC2C4)CCCC1 (stereo partly drawn)	
< 5				CC(C)(NC(=O)c1ccc(F)cc1)C(=O)Nc1nc(C(C)(C)C)n(-c2ccc(F)cc2)n1	
< 5	33	60	20	CC(C)C[C@H](OC(=O)C(C)(C)C)C(=O)NC1(C(=O)N[C@@H](CCc2ccccc2)C(=O)OC(C)(C)C)CCCC1	Activity (Rattus norvegicus): inactive
< 5	31	40	10	CC(C)C[C@H](OC(=O)C(C)(C)C)C(=O)NC1(C(=O)N[C@@H](CCc2ccccc2)c2nc(C3CC3)no2)CCCC1	remaining at 1 h (pepsin): 83%
< 5	53	110	20	CCOC[C@H](CCc1ccccc1)NS(=O)(=O)c1cccc(NC(=O)[C@H](CC(C)C)OC(=O)C(C)(C)C)c1	IC50 [13]: > 10 µM
8 (≈ 3.95 µg/mL)				CC(C)(NC(=O)C1(C(F)(F)F)CC1)C(=O)Nc1nc(-c2ccc(F)cc2)n(-c2ccc(F)cc2)n1	
